Experimental findings from patent US20230357162A1, “COMPOUNDS, COMPOSITIONS AND METHODS” (Denali Therapeutics Inc., priority 2020, published 2023) are described below.

Usually IC50 stands for the concentration at which inhibition is half-maximal. Low values mean greater potency, high ones weaker potency.

The test has as its system IL-1β secretion, THP-1 cells. Kind of test: IL-1β secretion assay in PMA-differentiated THP-1 cells stimulated with LPS and nigericin (ELISA readout). Format: cell-based. The settings on record: Homo sapiens, THP-1, inhibition of IL-1β secretion, 25 ng/mL LPS then nigericin. Put shortly: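 THP-1 cells differentiated with 5 ng/mL PMA for 40 h, primed in serum-free medium with 25 ng/mL LPS for 2 h, then compound (0.5% DMSO) for 1 h before nigericin for 2 h at 37°C. Supernatant IL-1β quantified by ELISA; normalized to high (LPS + 5 µM nigericin) and low (LPS only) controls.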
For orientation: An ELISA detects its analyte on a solid surface through an enzyme-linked reagent.

In the case of `CC(C)c1nn(CC(=O)Nc2ccn(C)n2)c(=O)c2ccc(Br)cc12` [Example 69, 2-(6-bromo-1-oxo-4-propan-2-ylphthalazin-2-yl)-N-(1-methylpyrazol-3-yl)acetamide], the IC50 reads like this: (class column of Table 3) under 10 µM; (numeric column of Table 3) 1.71 µM.

On to `CC(C)c1nn(CC(=O)Nc2cccnn2)c(=O)c2ccc(Br)cc12` [Example 70, 2-(6-bromo-1-oxo-4-propan-2-ylphthalazin-2-yl)-N-pyridazin-3-ylacetamide], for which the 50% inhibitory concentration (IC50) is, setting by setting: (class column of Table 3) under 10 µM; (numeric column of Table 3) 0.952 µM.

Consider `CC(C)c1nn(CC(=O)Nc2cnccn2)c(=O)c2ccc(Br)cc12` [Example 71, 2-(6-bromo-1-oxo-4-propan-2-ylphthalazin-2-yl)-N-pyrazin-2-ylacetamide], for which the IC50 by setting is: (class column of Table 3) under 10 µM; (numeric column of Table 3) 0.499 µM.

The compound `CC(C)c1nn(CC(=O)NC(C)c2ccccc2)c(=O)c2ccc(Br)cc12` (centres unmarked) [Example 72, 2-(6-bromo-1-oxo-4-propan-2-ylphthalazin-2-yl)-N-(1-phenylethyl)acetamide] displayed a concentration for half-maximal inhibition (IC50) (class column of Table 3) of under 10 µM and an IC50 (numeric column of Table 3) of 9.04 µM.

`CC(C)c1nn(CC(=O)N2CCCc3ccccc32)c(=O)c2ccc(Br)cc12` [Example 73, 6-bromo-2-[2-(3,4-dihydro-2H-quinolin-1-yl)-2-oxoethyl]-4-propan-2-ylphthalazin-1-one]: the IC50 reads like this: (class column of Table 3) under 10 µM; (numeric column of Table 3) 9.63 µM.

With `CC(C)c1nn(CC(=O)NCC2CCOCC2)c(=O)c2ccc(Br)cc12` [Example 74, 2-(6-bromo-1-oxo-4-propan-2-ylphthalazin-2-yl)-N-(oxan-4-ylmethyl)acetamide], the IC50 was under 10 µM (class column of Table 3) and 3.74 µM (numeric column of Table 3).

Turning to `CC(C)c1nn(CC(=O)NCC2CCOC2)c(=O)c2ccc(Br)cc12` (centres unmarked) [Example 75, 2-(6-bromo-1-oxo-4-propan-2-ylphthalazin-2-yl)-N-(oxolan-3-ylmethyl)acetamide], the IC50 was under 10 µM (class column of Table 3) and 2.85 µM (numeric column of Table 3).

In the case of `CC(C)c1nn(CC(=O)NC(C)C2CCC2)c(=O)c2ccc(Br)cc12` (centres unmarked) [Example 76, 2-(6-bromo-1-oxo-4-propan-2-ylphthalazin-2-yl)-N-(1-cyclobutylethyl)acetamide], the half-inhibitory concentration (IC50) reads like this: (class column of Table 3) under 10 µM; (numeric column of Table 3) 8.06 µM.

`CO[C@H]1C[C@@H](NC(=O)Cn2nc(C(C)C)c3cc(Br)ccc3c2=O)C1` [Example 77, 2-(6-bromo-1-oxo-4-propan-2-ylphthalazin-2-yl)-N-(3-cis-methoxycyclobutyl)acet amide]: the IC50 runs as follows: (class column of Table 3) under 10 µM; (numeric column of Table 3) 3.85 µM.

With `CO[C@H]1C[C@H](NC(=O)Cn2nc(C(C)C)c3cc(Br)ccc3c2=O)C1` [Example 78, 2-(6-bromo-1-oxo-4-propan-2-ylphthalazin-2-yl)-N-(3-trans-methoxycyclobutyl)acet amide], the 50% inhibitory concentration (IC50) runs as follows: (class column of Table 3) under 10 µM; (numeric column of Table 3) 1.51 µM.

For `CCN1CCC[C@@H](NC(=O)Cn2nc(C(C)C)c3cc(Cl)ccc3c2=O)C1` [Example 79, 2-(6-chloro-1-oxo-4-propan-2-ylphthalazin-2-yl)-N-[(3R)-1-ethylpiperidin-3-yl]acetamide], the IC50 was under 10 µM (class column of Table 3) and 0.61 µM (numeric column of Table 3).

As to `CC(F)c1nn(CC(=O)Nc2ncccn2)c(=O)c2ccc(Br)cc12` (centres unmarked) [Example 80, 2-[6-bromo-4-(1-fluoroethyl)-1-oxo-phthalazin-2-yl]-N-pyrimidin-2-yl-acetamide], the IC50 was under 10 µM (class column of Table 3) and 0.197 µM (numeric column of Table 3).

For `CC(F)c1nn(CC(=O)Nc2ncccn2)c(=O)c2cc(Br)ccc12` (centres unmarked) [Example 81, 2-[7-bromo-4-(1-fluoroethyl)-1-oxo-phthalazin-2-yl]-N-pyrimidin-2-yl-acetamide], the IC50 is over 15 µM (class column of Table 3) and 32 µM (numeric column of Table 3).

As for `O=C(Cn1nc(OC(F)(F)F)c2cc(Br)ccc2c1=O)Nc1ncncc1F` [Example 82], the IC50 by setting is: (class column of Table 3) under 10 µM; (numeric column of Table 3) 1.48 µM.

In the case of `O=C(Cn1nc(OC(F)(F)F)c2ccc(Br)cc2c1=O)Nc1ncncc1F` [Example 83, 2-[7-Bromo-1-Oxo-4-(Trifluoromethoxy)Phthalazin-2-yl]-N-(5-Fluoropyrimidin-4-yl)Acetamide], the IC50 by setting is: (class column of Table 3) over 15 µM; (numeric column of Table 3) over 50 µM.

Turning to `CC(C)c1nn(CC(=O)NCC2CCCCO2)c(=O)c2ccc(Br)cc12` (centres unmarked) [Example 84, 2-(6-bromo-1-oxo-4-propan-2-ylphthalazin-2-yl)-N-(oxan-2-ylmethyl)acetamide], the IC50 is under 10 µM (class column of Table 3) and 3.71 µM (numeric column of Table 3).

With `CC(C)c1nn(CC(=O)Nc2ncncc2F)c(=O)c2cc(F)c(Br)cc12` [Example 85, 2-(6-bromo-7-fluoro-1-oxo-4-propan-2-ylphthalazin-2-yl)-N-(5-fluoropyrimidin-4-yl)acetamide], the IC50 is, setting by setting: (class column of Table 3) under 10 µM; (numeric column of Table 3) 0.382 µM.

In turn, `CC(C)c1nn(CC(=O)Nc2ncncc2F)c(=O)c2cc(Br)c(F)cc12` [Example 86, 2-(7-bromo-6-fluoro-1-oxo-4-propan-2-ylphthalazin-2-yl)-N-(5-fluoropyrimidin-4-yl)acetamide] displayed a concentration for half-maximal inhibition (IC50) (class column of Table 3) of over 15 µM and an IC50 (numeric column of Table 3) of over 50 µM.

`CC(C)c1nn(CC(=O)Nc2ncncc2F)c(=O)c2cc(C(F)(F)F)ccc12` [Example 88, N-(5-fluoropyrimidin-4-yl)-2-[1-oxo-4-propan-2-yl-7-(trifluoromethyl)phthalazin-2-yl]acetamide]: the IC50 was over 15 µM (class column of Table 3) and over 50 µM (numeric column of Table 3).

Take `CCN1CCC[C@@H](NC(=O)Cn2nc(C(F)(F)F)c3cc(Br)ccc3c2=O)C1` [Example 89, 2-[6-bromo-1-oxo-4-(trifluoromethyl)phthalazin-2-yl]-N-[(3R)-1-ethylpiperidin-3-yl]acetamide]: the IC50 is under 10 µM (class column of Table 3) and 0.764 µM (numeric column of Table 3).

Turning to `CCN1CCC[C@@H](NC(=O)Cn2nc(C(F)(F)F)c3ccc(Br)cc3c2=O)C1` [Example 90, 2-[7-bromo-1-oxo-4-(trifluoromethyl)phthalazin-2-yl]-N-[(3R)-1-ethylpiperidin-3-yl]acetamide], the 50% inhibitory concentration (IC50) reads like this: (class column of Table 3) under 10 µM; (numeric column of Table 3) 6.74 µM.

On to `O=C(Cn1nc(CC(F)(F)F)c2cc(Br)ccc2c1=O)Nc1ncncc1F` [Example 91, 2-[6-bromo-1-oxo-4-(2,2,2-trifluoroethyl)phthalazin-2-yl]-N-(5-fluoropyrimidin-4-yl)acetamide], for which the IC50 is under 10 µM (class column of Table 3) and 0.489 µM (numeric column of Table 3).

Regarding `CC(C)c1nn(CC(=O)Nc2ncncc2F)c(=O)c2c(F)cc(Br)cc12` [Example 92, 2-(6-bromo-8-fluoro-1-oxo-4-propan-2-ylphthalazin-2-yl)-N-(5-fluoropyrimidin-4-yl)acetamide], the IC50 reads like this: (class column of Table 3) under 10 µM; (numeric column of Table 3) 0.741 µM.

With `O=C(Cn1nc(C(F)F)c2cc(Br)ccc2c1=O)Nc1ncccn1` [Example 93, 2-[6-bromo-4-(difluoromethyl)-1-oxo-phthalazin-2-yl]-N-pyrimidin-2-yl-acetamide], the IC50 is, setting by setting: (class column of Table 3) under 10 µM; (numeric column of Table 3) 0.14 µM.

Consider `O=C(Cn1nc(C(F)F)c2ccc(Br)cc2c1=O)Nc1ncccn1` [Example 94, 2-[7-bromo-4-(difluoromethyl)-1-oxo-phthalazin-2-yl]-N-pyrimidin-2-yl-acetamide], for which the IC50 (class column of Table 3) is under 10 µM and the IC50 (numeric column of Table 3) turned out to be 6.05 µM.
